Reference: article PMC10888192, “New Derivatives of 1-(3-Methyl-1-Benzofuran-2-yl)Ethan-1-one: Synthesis and Preliminary Studies of Biological Activity” (International Journal of Molecular Sciences, 2024)
Converted amounts (≈) assume the structure as drawn.

Legend:
[1] = test system: K562 cells (human chronic myelogenous leukemia); assay: MTT cytotoxicity assay, K562; assay type: cell-based; conditions: 72 h incubation, mean ± SD
Experimental: (§1) The cell viability was analyzed at the following six concentrations of compounds: 5, 10, 20, 40, 60 and 100 µM after 72 h incubation.
(§2) Additionally, to determine the safety profile of the tested compounds, the therapeutic index (TI) (the ratio of IC50 value in HaCaT to cancer cells K562) was calculated. […] The goal of conducting the MTT assay in this research was to select benzofuran derivatives, which manage to reduce viability of cancer cells while exposing mild effects on normal healthy cells.
(§3) The cytotoxicity was evaluated by MTT reduction assay, which measures mitochondrial respiratory function. The test was performed based on the method described by Präbst et al.. Cells (1 × 10^4/well), in logarithmic phase, were seeded into 96-well plates in appropriate medium. After 24 h, cells were exposed to test compounds. […] After 72 h, the medium with the compounds was completely removed and MTT solution (0.5 mg/mL) in fresh medium without serum was added to each well. Plates with cells were incubated for 4 h at 37 °C in the dark. Then, MTT solution was removed and replenished with 0.1 mL DMSO: isopropanol (1:1) mixture to dissolve the generated formazan crystals. The optical density was measured with a […] GO (ThermoScientific) microplate reader at 570 nm. Replicates of three wells for each dosage, including vehicle control, were analyzed for each experiment. The experiments were conducted in triplicate. Control cells which were only treated with respective medium were used as the 100% viability value. […] Additionally, to determine the safety profile of the test compounds, therapeutic indexes (TI) (the ratio of IC50 values in HaCat to cancer cells (K562, PC3, SW620, Cack-1)) were calculated.

K562 leukemic cell line = test system: K562 leukemic cell line; set-up: method as in PMID 20657389, PMID 25482722, PMID 30465514, PMID 31003438; conditions: lead compound; ref [32],[33],[34],[35]; cited from earlier work
HL-60 leukemic cell line = test system: HL-60 leukemic cell line; set-up: method as in PMID 20657389, PMID 25482722, PMID 30465514, PMID 31003438; conditions: lead compound; ref [32],[33],[34],[35]; cited from earlier work
HeLa cancer cells = test system: HeLa cancer cells; set-up: method as in PMID 20657389, PMID 25482722, PMID 30465514, PMID 31003438; conditions: lead compound; ref [32],[33],[34],[35]; cited from earlier work
[2] = test system: PC3 cells (human metastatic prostate cancer); assay: MTT cytotoxicity assay, PC3; assay type: cell-based; conditions: PC-3, 72 h incubation, mean ± SD
Experimental: as §1, §2, §3

[3] = test system: SW620 cells (human metastatic colon cancer); assay: MTT cytotoxicity assay, SW620; assay type: cell-based; conditions: SW-620, 72 h incubation, mean ± SD
Experimental: as §1, §2, §3

[4] = test system: Cacki-1 cells (human clear cell renal cell carcinoma); assay: MTT cytotoxicity assay, Cacki-1; assay type: cell-based; conditions: 72 h incubation
Experimental: as §1, §2, §3

[5] = test system: HaCaT cells (human immortal keratinocytes); assay: MTT cytotoxicity assay, HaCaT; assay type: cell-based; conditions: 72 h incubation, mean ± SD
Experimental: as §1, §2, §3

E. coli ATCC 25922 = assay: MIC, microdilution; assay type: cell-based; conditions: Escherichia coli, ATCC25922; 18 h, 35 °C, MH II medium
Experimental: (§4) The antimicrobial studies for all of the obtained compounds were conducted using reference strains of bacteria derived from international microbe collections—the American Type Culture Collection (ATCC) and the National Collection of Type Culture (NCTC). Among the reference strains there were two Gram-negative rods (P. aeruginosa ATCC 15442 and E. coli ATCC 25922) and six Gram-positive isolates (Staphylococcus aureus: NCTC 4163, ATCC 25923, ATCC 6538, ATCC 29213, S. epidermidis ATCC 12228, ATCC 35984).
(§5) The antimicrobial activity of compounds was expressed by minimum inhibitory concentration values (MICs), according to CLCI reference procedures with some modifications. MIC was tested by the two-fold serial microdilution method (in 96-well microtiter plates) on MH II liquid medium. The final inoculum of all of the studied bacteria was 10^6 CFU/mL (colony forming unit per mL). The stock solution of tested compounds was prepared in DMSO and was diluted in sterile medium (to a maximum of 1% of solvent content). The concentrations of compounds were from 16 to 512 µg/mL. […] Clinical microorganisms used in this study were obtained from the collection of the Department of Pharmaceutical Microbiology, Medical University of Warsaw, Poland [70, 71].

P. aeruginosa ATCC 15442 = assay: MIC, microdilution; assay type: cell-based; conditions: Pseudomonas aeruginosa, ATCC15442; 18 h, 35 °C, MH II medium
Experimental: as §4, §5

[6] = test system: S. epidermidis ATCC 35984; assay: MIC, microdilution; assay type: cell-based; conditions: Staphylococcus epidermidis, ATCC35984; 18 h, 35 °C, MH II medium
Experimental: as §4, §5

[7] = test system: S. epiderminis ATCC 122228; assay: MIC, microdilution; assay type: cell-based; conditions: Staphylococcus epidermidis, ATCC122228, 18 h, read-out: MIC S. epiderminis ATCC 122228
Experimental: as §4, §5

S.aureus ATCC 25923 = assay: MIC, microdilution; assay type: cell-based; conditions: Staphylococcus aureus, ATCC25923; 18 h, 35 °C, MH II medium
Experimental: as §4, §5

S.aureus ATCC 6538 = assay: MIC, microdilution; assay type: cell-based; conditions: Staphylococcus aureus, ATCC6538; 18 h, 35 °C, MH II medium
Experimental: as §4, §5

S.aureus NCTC 29213 = assay: MIC, microdilution; assay type: cell-based; conditions: Staphylococcus aureus, NCTC29213, 18 h, read-out: MIC S.aureus NCTC 29213
Experimental: as §4, §5

S.aureus NCTC 4163 = assay: MIC, microdilution; assay type: cell-based; conditions: Staphylococcus aureus, NCTC4163; 18 h, 35 °C, MH II medium
Experimental: as §4, §5

clinical strains = assay: organism not typed; assay type: cell-based; conditions: read-out: MIC clinical strains
Experimental: as §5

Row | Structure (SMILES) | IC50 [1] [µM] | IC50 [2] [µM] | IC50 [3] [µM] | IC50 [4] [µM] | IC50 [5] [µM] | melting point [°C] | also measured
1 | COc1cccc2c1C(=O)c1c(O)c3c(c(O)c1C2=O)C[C@@](O)(C(=O)CO)C[C@@H]3O[C@H]1C[C@H](N)[C@H](O)[C@H](C)O1 [Doxorubicin, reference compound] | 0.21 ± 0.1 |  |  |  |  |  | 
2 | COc1cc2c(CBr)c(C(C)=O)oc2c(C(C)=O)c1OC [1,1′-[3-(bromomethyl)-5,6-dimethoxy-1-benzofuran-2,7-diyl]diethanone] |  |  |  |  |  |  | IC50 (K562 leukemic cell line): 5 µM; IC50 (HL-60 leukemic cell line): 0.1 µM; Toxicity toward HeLa cancer cells (HeLa cancer cells): exhibiting toxicity toward neither HeLa cancer cells
3 | COc1cc2oc(C(C)=O)c(CBr)c2c(OC)c1Br [Compound 7, 1-[5-Bromo-3-(Bromomethyl)-4,6-Dimethoxy-1-Benzofuran-2-yl]Ethanone] | 50 ± 10 | 40 ± 15 | 47.1 ± 22.2 | > 100 | 5.69 ± 5.67 | 165 to 171 | MIC (E. coli ATCC 25922): > 512 µg/mL; MIC (P. aeruginosa ATCC 15442): > 512 µg/mL; MIC [6]: 16 µg/mL (≈ 40.8 µM); MIC [7]: 16 µg/mL (≈ 40.8 µM); MIC (S.aureus ATCC 25923): 16 µg/mL (≈ 40.8 µM); MIC (S.aureus ATCC 6538): 64 µg/mL (≈ 163 µM); MIC (S.aureus NCTC 29213): 32 µg/mL (≈ 81.6 µM); MIC (S.aureus NCTC 4163): > 512 µg/mL; MIC (clinical strains): > 250 µg/mL
4 | CCOc1ccc2c(CBr)c(C(C)=O)oc2c1 [Compound 9, 1-[3-(Bromomethyl)-6-Ethoxy-1-Benzofuran-2-yl]Ethanone] | 14.4 ± 3.7 | 40 ± 20 | > 100 | > 100 | 22.8 ± 1.51 | 98 to 105 | 
5 | COc1cc(OC)c2c(C)c(C(C)=O)oc2c1 [Compound 2, 1-(4,6-Dimethoxy-3-Methyl-1-Benzofuran-2-yl)Ethanone] | 36.3 ± 4.5 | > 100 | > 100 | > 100 | 67.3 ± 29.7 | 115 to 118 | 
6 | COc1ccc2oc(C(C)=O)c(CBr)c2c1 [Compound 5, 1-[3-(Bromomethyl)-5-Methoxy-1-Benzofuran-2-yl]Ethanone] | 10.3 ± 0.55 | 17.5 ± 3.5 | 15.6 ± 4.1 | > 100 | 15 ± 0.8 | 103 to 106 | 
7 | COc1ccc2oc(C(C)=O)c(C)c2c1 [Compound 1, 1-(5-Methoxy-3-Methyl-1-Benzofuran-2-yl)Ethanone] | 57 ± 3.5 | 80 ± 20 | > 100 | > 100 | > 100 | 93 to 96 | 
8 | CCOc1ccc2c(C)c(C(C)=O)oc2c1 [Compound 4, 1-(6-Ethoxy-3-Methyl-1-Benzofuran-2-yl)Ethanone] | 60 ± 9 | > 100 | > 100 | > 100 | 55.3 ± 33.4 | 86 to 90 | 
9 | CC(C)C[C@H](NC(=O)[C@H](Cc1ccccc1)NC(=O)c1cnccn1)B(O)O [Bortezomib, reference compound] | 0.04 ± 0.01 |  |  |  |  |  | 
10 | CCOc1cccc2oc(C(C)=O)c(C)c12 [Compound 3, 1-(4-Ethoxy-3-Methyl-1-Benzofuran-2-yl)Ethanone] | 58 ± 21.1 | 66.4 ± 28.7 | 52.3 ± 22.5 | > 100 | > 100 | 60 to 65 | 
